Consider 2 molecules from US20230165864A1, “APPLICATION OF HETEROCYCLIC COMPOUND” (GUANGZHOU JOYO PHARMATECH CO., LTD, priority 2020, published 2023).

SMILES strings stand for the structures.

The conditions of data set [1]: Phase III clinical trial (N=287); cited from earlier work.
The nature of data set [2]: Clinical trial study of tablets containing compound 11A: fasting blood glucose and safety. It counts as in vivo, human. How it is done: The embodiments were all derived from a clinical trial study. The subjects were screened and eligible to enter groups according to the entry criteria specified in the clinical protocol. The test drug was administered orally on day 1, and adverse events and combined administration were observed and recorded after administration. After safety evaluation was conducted on day 7 of the single administration period, the subjects received continuous administration of the test drug until the subjects withdrew from the clinical trial. Safety assessments were conducted during the clinical trial according to the time specified in the clinical protocol.
Embodiments 2 to 9 were derived from an ongoing clinical trial study with dose groups of 0.1 mg, 0.2 mg, 0.4 mg, 0.5 mg, 0.7 mg, 0.9 mg, 1.1 mg, and 1.4 mg.

Data set [3] in a line: Bioavailability experiments (pharmacokinetics) in beagle dogs. Particulars: male and female beagle dogs. It is filed as in vivo. How it is done:
Bioavailability Experiments
During the experimental period, animals were housed in single cages with animal identification codes marked on the cage tags. The 12 non-naïve beagle dogs (6/sex) were randomly divided into 2 groups (3/sex/group).
(1) Non-naïve beagle dogs were administered intravenously (solvent 50% PEG400+50% PBS) at a dose volume of 2 mL/kg per dog (dose of 0.1 mg/kg per dog), and then blood was collected to measure the plasma drug concentration of non-naïve beagle dogs at different time points of 15 minutes, 30 minutes, 1 hour, 2 hours, 4 hours, 6 hours, 8 hours, and 24 hours.
(2) Non-naïve beagle dogs were administered orally at a dose volume of 1 tablet per dog (dose of 0.5 mg per dog), and then blood was collected to measure the plasma drug concentration of non-naïve beagle dogs at different time points of 15 minutes, 30 minutes, 1 hour, 2 hours, 4 hours, 6 hours, 8 hours, and 24 hours; the oral bioavailability of tablets was calculated.
Plasma drug concentration data was processed in a non-compartment model using WinNonlin™ Version 6.2.1 (Pharsight, Mountain View, Calif.) pharmacokinetic software. The peak concentration (Cmax), peak time (Tmax) and quantifiable time were directly read out from the plasma drug concentration-time diagram.
The following pharmacokinetic parameters were calculated using the log-linear trapezoidal method: elimination phase half-life (T1/2), apparent volume of distribution (Vdss) and clearance rate (CL), mean residence time of the drug from 0 to the end time point in vivo (MRT0-last), mean residence time of the drug from 0 to infinite time in vivo (MRT0-inf), the area under the time-plasma concentration curve from 0 to the end time point (AUC0-last), the area under the time-plasma concentration curve from 0 to infinite time (AUC0-inf), initial concentration (C0).

For `Cc1nc(NC(=O)N2CCC[C@H]2C(N)=O)sc1-c1ccnc(C(C)(C)C(F)(F)F)c1` [Alpelisib], in data set [1], the diarrhea incidence is on record as 57.7%, the “diarrhea incidence above grade 3” value is 6.7%, the nausea incidence is 44.7% and the “nausea incidence above grade 3” value is on record as 2.5%. Further, in data set [1], the vomiting incidence is reported as 27.1% and the “vomiting incidence above grade 3” value was 0.7%.
For `COCCOc1cnc2ccc(-c3cnc(OC)c(NS(=O)(=O)c4sc(C)nc4C)c3)cn2c1=O` [Compound 11A], the fasting blood glucose in data set [2] (Subject 1, tablet 0.1 mg once a day oral from Nov. 9, 2018, follow-up Mar. 14, 2019, baseline 5.64 mmol/L) worked out at 6.19 mmol/L; in data set [2] (Subject 2, tablet 0.2 mg once a day oral from Jan. 16, 2019, follow-up Jan. 23, 2019, baseline 5.81 mmol/L), 6.45 mmol/L; in data set [2] (Subject 3, tablet 0.4 mg once a day oral from May 30, 2019, follow-up Jun. 5, 2019, baseline 5.63 mmol/L) it was 6.99 mmol/L; in data set [2] (Subject 5, tablet 0.7 mg once a day oral from Nov. 7, 2019, follow-up Nov. 13, 2019, baseline 6.06 mmol/L), 8.37 mmol/L; in data set [2] (Subject 5, tablet 0.7 mg once a day oral from Nov. 7, 2019, follow-up Nov. 20, 2019, baseline 6.06 mmol/L), 9.44 mmol/L; in data set [2] (Subject 6, 0.7 mg tablet administered continuously again from Nov. 30, 2019, follow-up Dec. 4, 2019), 11.44 mmol/L. The fasting blood glucose came out at 11.4 mmol/L in data set [2] (Subject 6, tablet 0.7 mg once a day oral from Nov. 21, 2019, follow-up Nov. 27, 2019, baseline 5.87 mmol/L); 9.13 mmol/L in data set [2] (Subject 7, tablet 0.7 mg once a day oral from Dec. 10, 2019, follow-up Jan. 20, 2020, baseline 5.92 mmol/L); 12.66 mmol/L in data set [2] (Subject 8, tablet 1.1 mg once a day oral from Dec. 17, 2019 (so in the source), measured Dec. 23, 2020, baseline 6.87 mmol/L); 10.77 mmol/L in data set [2] (Subject 9, tablet 1.4 mg once a day oral from Aug. 27, 2020, measured Sep. 2, 2020, baseline 5.94 mmol/L). In addition, in data set [2] (Subject 6, 0.7 mg tablets stopped Nov. 27, 2019, measured Nov. 29, 2019), the “fasting blood glucose after stopping administration” value is on record as “returned to normal”. Besides, the incidence of hyperglycemia in data set [2] (subjects of dose groups 0.1-1.4 mg, during the administering period) was determined as 80%. Also, in data set [2] (the 8 subjects of embodiments 2 to 9), the “gastrointestinal side effects such as nausea, vomiting and diarrhea” value is listed as “no significant gastrointestinal side effects”. Further, in data set [3] (both sexes, dog, plasma, single intravenous injection 0.1 mg/kg, read-out: apparent volume of distribution (Vdss)), the Vd was 6.16 ± 1.91 L/kg. The AUC(0-t) in data set [3] (both sexes, dog, plasma, single intravenous injection 0.1 mg/kg, read-out: area under the curve AUC0-last) is 0.114 ± 0.0276 µM·h. Besides, the half-life in data set [3] (both sexes, dog, plasma, single intravenous injection 0.1 mg/kg, read-out: mean plasma elimination phase half-life Tin (converted)) was 3.21 ± 1.81 h. The clearance in data set [3] (both sexes, dog, plasma, single intravenous injection 0.1 mg/kg, read-out: plasma clearance rate (CL)) was 24.6 ± 6.66 mL/min/kg. Besides, in data set [3] (both sexes, dog, plasma, single oral administration of tablet containing 0.5 mg of 11A (prescription of embodiment 1)), the bioavailability was found to be 80.9%. Besides, the Cmax in data set [3] (both sexes, dog, plasma, single oral administration of tablet containing 0.5 mg of 11A (prescription of embodiment 1), read-out: peak concentration (Cmax)) turned out to be 11.1 ± 2.08 nM. Further, the peak times in data set [3] (single oral administration of tablet containing 0.5 mg of 11A (prescription of embodiment 1)) stood at 1.00 ± 0.00 h.
